Data reported in US20030186352A1, “Apicomplexan chorismate synthase sequences and an inhibitor of the shikimate pathway” (priority 1998, published 2003).
Converted amounts (≈) assume the structure as drawn. Where two headings read alike, the source gives them in different places.

How the values were obtained:
[1] = system: C. parvum; assay: C. parvum infection of MDBKF5D2 cell monolayers, immunofluorescence assay at 48 hours; format: cell-based, Cryptosporidium parvum
Protocol: C. parvum oocysts at 50,000/well were incubated at 37° C. (8% CO2) on confluent MDBKF5D2 cell monolayers in 96 well microtiter plates with the following concentrations of each drug. […] The level of infection of each well was determined and analyzed by an immunofluorescence assay at 48 hours using an antibody to C. parvum sporozoites made in rabbits at a concentration of 0.1%. Fluorescein-conjugated goat anti-rabbit antibody was used at a concentration of 1%.
C. parvum oocysts at 50,000/well were incubated with each drug (PRM=paromomycin which is the positive control, NPMG, gabaculine, SHAM, 8-hydroxyquinoline) at 37° C. (8% carbon dioxide) on confluent MDBKF5D2 cell monolayers in 96 well microtiter plates. The level of infection of each well was determined and analyzed by an immunofluorescence assay at 48 hours using as an antibody C. parvum sporozoite rabbit anti-serum (0.1%), and using fluorescein-conjugated goat anti-rabbit antibody (1%). Data are expressed as mean parasite count/field when 16 fields counted at 10× magnification “s.d. of the mean” (FIG. 6).

[2] = system: W2 clone of Plasmodium falciparum; assay: P. falciparum in vitro growth assay (Milhous et al.), W2 clone; format: cell-based; settings: for IC50 / IC90: Plasmodium falciparum
[3] = system: D6 clone of Plasmodium falciparum; assay: P. falciparum in vitro growth assay (Milhous et al.), D6 clone; format: cell-based; settings: for IC50 / IC90: Plasmodium falciparum
[4] = system: fibroblasts; assay: TSA-DCA experiments: effect on host cells (tritiated thymidine uptake, non-confluent fibroblasts); format: cell-based, human
Protocol: (§1) Effects of inhibitors of T. gondii in vitro were assessed after 1, 4 or 5 days in tissue culture using fibroblasts infected with […] tachyzoites of T. gondii. Effects in the fibroblasts were scored. Compounds used were TSA-DCA, TSA-Na+, and DCA at various concentrations ranging up to 1 mM. Uptake of ^3H uracil (utilized by T. gondii but not by mammalian cells), and visual appearance of T. gondii in these cells were used to assess parasite growth. Effect of compounds on host cells was studied by microscopic examination and by measuring uptake of tritiated thymidine utilizing a non-confluent monolayer of fibroblasts.
(§2) The results in table 5 show the greatest inhibitory effect of TSA-DCA and some effect of DCA at a higher concentration. […] “T50” is the concentration at which 50% of the cells were killed (T=toxic) and so forth. […] Analysis was uptake of H3 thymidine. Confirmation was by visual inspection of microscope slides (e.g. FIGS. 15 A-D).

[5] = system: T. gondii tachyzoites; assay: TSA-DCA experiments: T. gondii growth in fibroblasts (3H uracil uptake, visual appearance); format: cell-based, Toxoplasma gondii
Protocol: as §1, §2

[6] = system: T. gondii tachyzoites (RH strain); assay: T. gondii growth inhibition in HFF monolayers, tritiated uracil uptake; format: cell-based, Toxoplasma gondii
Protocol: The improvements are based on microscopic visual imspection of infected and inhibitor treated cultures, and on quantitation of nucleic acid synthesis of the parasite by measure intake of ^3H uracil onto the parasite's nucleic acid. Uracil is not utilized by mammalian cells. […] Only the RH strain tachyzoites, cultured for up to 72 hours, had been used in previously reported assays. The use of Me49, Ptg, and R5 mutant are unique aspects of the methods used in these assays in this invention.
In these assays toxicity of a candidate inhibitor was assessed by its ability to prevent growth of human foreskin fibroblasts (HFF) after 4 days and after 8 days as measured by tritiated thymidine uptake and microscopic evaluation. Confluent monolayers of HFF were infected with tachyzoites and bradyzoites. Inhibitor was added one hour later. Non-toxic doses were used in parasite growth inhibition assays. Parasite growth was measured by ability to incorporate tritiated uracil during the last 18 hours of culture.
First the toxicity of gabaculine was assessed by its ability to prevent growth of human foreskin fibroblasts (HFF) as measured by ^3H-thymidine uptake and microscopic evaluation. Non-toxic doses were used in parasite growth inhibition assays. in vitro parasite growth inhibition assays included confluent monolayers of HFF infected with tachyzoites (RH) or mutant Me49 (R5). Gabaculine was added 1 hour later. Parasite growth was measured by the ability to incorporate 3H-uracil during the last 18 hours of culture. In addition, parasite growth was evaluated microscopically in Giemsa stained slides.
Confluent monolayers of HFF cells, grown in 96-well plates are infected with T. gondii tachyzoites of the RH strain and serial dilutions of anti-microbial compound are applied 1 hour later. T. gondii growth is assessed in these cultures by their ability to incorporate tritiated uracil (2.5 μCi/well) added during the last 18 hours of culture. After harvesting cells with an automatic cell harvester, uracil incorporation is measured by liquid scintillation.

[7] = system: T. gondii; assay: T. gondii infection in mice: manifestations, parasitemia, brain cysts; parameters: species or system Toxoplasma gondii
From the text: Cyst numbers present in a suspension of brain are enumerated, or cyst numbers in formalin fixed paraffin embedded sections are quantitated.
In this competitive PCR method the T. gondii B1 gene is amplified by PCR in the presence of a construct which produces a product slightly smaller than the wild type B1 gene. The amount of construct can be quantitated to semiquantitate the amount of the competing wild type gene.
A method to measure the amount of parasitemia in mouse peripheral blood has been developed. Briefly, the target for PCR amplification is the 35 fold repetitive B1 gene of T. gondii and the amplification was performed using primers previously reported. […] Competitive PCR was performed by spiking individual reactions (containing equal amounts of genomic DNA) with a dilution of the internal standard. Since this internal control contains the same primer template sequences, it competes with the B1 gene of T. gondii for primer binding and amplification. The sensitivity of the PCR reaction in each sample can be monitored. Following competitive PCR, the PCR products are distinguished by size and the amount of products generated by the target and internal standard can be compared on a gel. The amount of competitor DNA yielding equal amounts of products gives the initial amount of target gene.

[8] = W2 clone (first value of each pair)
[9] = D6 clone (second value of each pair)
[10] = W2 clone (first value of each pair), read-out: Concentrations of other compounds that inhibited these clones in this assay
[11] = D6 clone (second value of each pair), read-out: Concentrations of other compounds that inhibited these clones in this assay
[12] = exp. 5/15, day 4, range 12-100 (200) uM, no visual
[13] = exp. 5/29, day 4, range 125-1000 (2000) uM, no visual
[14] = exp. 8/23, day 1, range 250-2000 uM

Structure (SMILES): NC[C@@H]1O[C@H](O[C@H]2[C@@H](O)[C@H](O[C@@H]3[C@@H](O)[C@H](N)C[C@H](N)[C@H]3O[C@H]3O[C@H](CO)[C@@H](O)[C@H](O)[C@H]3N)O[C@@H]2CO)[C@H](N)[C@@H](O)[C@@H]1O [PRM]
- approximate 95% Cl count (mean parasite count per field) ([1]; paromomycin with ethanol (positive control), media and ethanol ~1200): ~100 count/field
- approximate 95% Cl count (mean parasite count per field) ([1]; paromomycin without ethanol (positive control), media alone ~1800): ~200 count/field

Structure (SMILES): CCN(CC)CCCC(C)Nc1ccnc2cc(Cl)ccc12 (stereo not drawn) [Chloroquin]
- Concentrations of other compounds that inhibited these clones in this assay [2, 8]: 40.86 ng/mL
- Concentrations of other compounds that inhibited these clones in this assay [3, 9]: 2.88 ng/mL

Structure (SMILES): C=C[C@H]1C[N@@]2CC[C@H]1C[C@H]2[C@H](O)c1ccnc2ccc(OC)cc12 [Quinine]
- IC50 [2, 10]: 0.0386 µg/mL (≈ 0.119 µM)
- IC50 [3, 11]: 4.41 ng/mL (≈ 0.0136 µM)

Structure (SMILES): C1CCC(NC2CCCCC2)CC1 [DCA, dicyclohexylamine]
- T50 [4, 12]: 50 µM
- T90 [4, 12]: none
- T50 [4, 13]: none
- T90 [4, 13]: 2000 µM
- T50 [4, 14]: 1000 µM
- T90 [4, 14]: none
- IC50 ([5]; Toxoplasma gondii, Fibroblast, 24 h): 500 µM
- IC75 ([5]; day 1 of culture): 1000 µM
- IC7 5-80 [5, 12]: none
- IC50 [5, 12]: none
- IC7 5-80 [5, 13]: none
- IC50 [5, 13]: none
- IC7 5-80 [5, 14]: 250 to 500 µM
- IC7 5-80 ([5]; exp. 9/8, day 1, range 125-1000 uM): 1000 µM

Structure (SMILES): O=C(O)CC[N+](=O)[O-] [3-NPA, 3-Nitropropionic acid]
- IC50 ([2]; W2): 3.3 µg/mL (≈ 27.7 µM)
- IC90 ([2]; W2): 4.61 µg/mL (≈ 38.7 µM)
- IC50 ([3]; D6): 2820 ng/mL (≈ 23.7 µM)
- IC90 ([3]; D6): 2.82 µg/mL (≈ 23.7 µM)
- inhibition of C. parvum [1]: inhibited
- restriction of CPM (tritiated uracil incorporation) ([6]; 3-NPA 0.006 mg ml, 4-day assay, medium about 30,000 CPM): around 60%

Structure (SMILES): CCc1nc(N)nc(N)c1-c1ccc(Cl)cc1 [Pyrimethamine]
- IC50 [2, 10]: 0.0821 µg/mL (≈ 0.33 µM)
- IC50 [3, 11]: 0.05 ng/mL (≈ 0.000201 µM)

Structure (SMILES): O=C(NO)c1ccccc1O [SHAM, Salicylhydroxamic acid]
- approximate 95% Cl count (mean parasite count per field) ([1]; SHAM 0.1 μg/ml, 0.2% ETOH, media and ethanol ~1200): ~1200 count/field
- approximate 95% Cl count (mean parasite count per field) ([1]; SHAM 1 μg/ml, 0.2% ETOH, media and ethanol ~1200): ~1100 count/field
- approximate 95% Cl count (mean parasite count per field) ([1]; SHAM 10 μg/ml, 0.2% ETOH, media and ethanol ~1200): ~1100 count/field
- approximate 95% Cl count (mean parasite count per field) ([1]; SHAM 100 μg/ml, 0.2% ETOH, media and ethanol ~1200): ~400 count/field
- parasitemia and number of brain cysts in vivo [7]: affects parasitemia and number of brain cysts
- effect against T. gondii [6]: effective against T. gondii
- restriction of CPM (tritiated uracil incorporation) ([6]; SHAM 0.16 μg/ml, 4 day assay, medium around 54,000 CPM): around 50%
- counts (tritiated uracil incorporation) ([6]; SHAM 0.78 μg/ml, 4 days, medium around 54,000, no RH around 1,000 CPM): about 8,000 CPM

Structure (SMILES): CCCCN(CCCC)CCC(O)c1cc2c(Cl)cc(Cl)cc2c2cc(C(F)(F)F)ccc12 (stereo not drawn) [HAL]
- Concentrations of other compounds that inhibited these clones in this assay [2, 8]: 0.33 ng/mL
- Concentrations of other compounds that inhibited these clones in this assay [3, 9]: 0.51 ng/mL

Structure (SMILES): Oc1cccc2cccnc12 [8-OH-quinoline, 8-hydroxyquinoline]
- IC50 ([2]; W2): 1.63 µg/mL (≈ 11.2 µM)
- IC90 ([2]; W2): 4.52 µg/mL (≈ 31.1 µM)
- IC50 ([3]; D6): 1200 ng/mL (≈ 8.29 µM)
- IC90 ([3]; D6): 1.88 µg/mL (≈ 13 µM)
- approximate 95% Cl count (mean parasite count per field) ([1]; 8-OH-quinoline 0.1 μg/ml, media alone ~1800): ~1300 count/field
- approximate 95% Cl count (mean parasite count per field) ([1]; 8-OH-quinoline 1 μg/ml, media alone ~1800): ~1100 count/field
- approximate 95% Cl count (mean parasite count per field) ([1]; 8-OH-quinoline 10 μg/ml, media alone ~1800): ~900 count/field
- approximate 95% Cl count (mean parasite count per field) ([1]; 8-OH-quinoline 100 μg/ml, media alone ~1800): ~300 count/field
- effect against T. gondii [6]: effective against T. gondii

Structure (SMILES): Nc1ccc(S(=O)(=O)Nc2ncccn2)cc1 [Sulfadiazine]
- manifestations of infection in vivo [7]: reduced manifestations of infection
- reduction of growth of T. gondii ([6]; sulphadiazine 1.56 μmg/ml, 4 days, medium about 36,000 CPM): about 60%

Structure (SMILES): O=C1C(O)=C([C@H]2CC[C@H](c3ccc(Cl)cc3)CC2)C(=O)c2ccccc21 [Atovaquovone]
- Concentrations of other compounds that inhibited these clones in this assay [2, 8]: 0.13 ng/mL
- Concentrations of other compounds that inhibited these clones in this assay [3, 9]: 0.12 ng/mL
